Assays:
Assay in all cases: CTG-3D luminescence at 96 h relative to day-0 seeding control (ratio to day 0); higher = more growth / less cytotoxicity; PDxO 3D drug screen, 96 h, CTG-3D normalised to day-0 seeding control.
HCI-025 = test system: HCI-025 (organoid from a breast cancer xenograft)
HCI-010 = test system: HCI-010 (organoid from a breast cancer xenograft)
HCI-008 = test system: HCI-008 (organoid from a HER2-enriched breast cancer xenograft)
HCI-019 = test system: HCI-019 (organoid from a triple-negative breast cancer xenograft)
HCI-027 = test system: HCI-027 (organoid from a triple-negative breast cancer xenograft)
HCI-016 = test system: HCI-016 (organoid from a triple-negative breast cancer xenograft)

COc1cccc2c1C(=O)c1c(O)c3c(c(O)c1C2=O)C[C@@](O)(C(=O)CO)C[C@@H]3O[C@H]1C[C@H](N)[C@H](O)[C@H](C)O1 [doxorubicin]
CTG-3D luminescence at 96 h
Details	12.5 pM	0.00025 µM	0.005 µM	0.1 µM	1 µM	10 µM	100 µM	625 fM
HCI-008, days in culture: 228	1.33	1.91	1.48	1.51	0.743	0.19	0.0571	1.87
HCI-008, days in culture: 244	1.19	1.9	1.52	2.09	0.849	0.198	0.0903	2.37
HCI-010, days in culture: 52	2.23	2.37	2.52	1.93	0.497	0.271	0.0478	2.26
HCI-010, days in culture: 65	1.7	1.65	1.8	1.3	0.324	0.288	-0.000428	1.65
HCI-010, days in culture: 103	3.64	3.76	3.69	2.37	0.535	0.804	0.0524	3.28
HCI-016, days in culture: 153	2.98	1.26	2.02	0.665	0.19	0.0767	0.0122	2.51
HCI-016, days in culture: 172	2.04	1.45	1.73	1.29	0.194	0.0836	0.0359	1.97
HCI-016, days in culture: 190	1.66	1.38	1.27	0.803	0.316	0.118	0.0242	1.26
HCI-016, days in culture: 199	1.35	1.52	1.53	1.33	0.159	0.232	0.0264	1.7
HCI-019, days in culture: 110	1.69	1.56	1.49	1.03	0.296	0.00454	-0.00853	1.91
HCI-019, days in culture: 131	3.03	3.8	2.31	1.47	0.314	0.00725	-0.0127	4.1
HCI-019, days in culture: 152	3.43	3.12	2.32	1.57	0.409	0.00363	-0.00918	2.03
HCI-025, days in culture: 172	2.56	1.67	2.22	1.81	0.663	-0.00377	-0.0121	2.18
HCI-025, days in culture: 209	2.17	2.18	2.33	1.37	0.406	0.0188	-0.00838	1.45
HCI-025, days in culture: 218	1.71	1.89	1.74	1.66	0.23	0.0154	-0.0116	1.66
HCI-027, days in culture: 176	2.14	1.93	1.87	0.162	0.0301	0.0198	0.0148	1.53
HCI-027, days in culture: 194	1.83	1.43	1.48	0.308	0.0306	0.0259	0.0261	1.7
HCI-027, days in culture: 201	1.99	2.28	1.79	0.325	0.0185	0.0267	0.0218	2.05

Cc1nc(-c2cn3c(n2)-c2ccc(-c4cnn(C(C)(C)C(N)=O)c4)cc2OCC3)n(C(C)C)n1 [taselisib]
CTG-3D luminescence at 96 h
Details	12.5 pM	0.00025 µM	0.005 µM	0.1 µM	1 µM	10 µM	100 µM	625 fM
HCI-008, days in culture: 228	1.62	1.54	1.28	0.687	0.439	0.314	0.174	1.8
HCI-008, days in culture: 244	1.38	1.94	1.92	0.848	0.448	0.358	0.123	2.25
HCI-010, days in culture: 52	2.17	2.09	1.97	2.31	1.65	0.735	0.0132	2.15
HCI-010, days in culture: 65	1.89	1.84	1.88	1.78	1.24	0.457	0.00794	1.82
HCI-010, days in culture: 103	3.55	3.66	3.45	3.46	2.33	0.906	0.0169	2.92
HCI-016, days in culture: 153	3	1.97	2.05	1.75	1.93	1.68	1.08	2.05
HCI-016, days in culture: 172	2.1	1.26	1.83	1.06	1.32	0.704	0.881	1.53
HCI-016, days in culture: 190	1.8	1.3	1.49	1.25	1.07	0.971	0.254	1.2
HCI-016, days in culture: 199	1.68	1.68	1.69	1.49	1.48	0.98	0.362	1.95
HCI-019, days in culture: 110	1.23	1.32	1.4	1.45	0.521	0.496	0.105	2.64
HCI-019, days in culture: 131	2.82	3.38	3.03	1.62	1.23	0.571	0.133	4.04
HCI-019, days in culture: 152	3.26	2.42	2.02	1.86	1.08	0.381	0.116	2.51
HCI-025, days in culture: 172	3.15	1.96	3.8	1.36	0.93	0.235	0.0865	1.92
HCI-025, days in culture: 209	1.6	2.39	1.79	1.16	0.455	0.267	0.0164	1.64
HCI-025, days in culture: 218	1.42	1.87	1.83	0.886	0.193	0.296	0.0322	1.54
HCI-027, days in culture: 176	1.91	1.52	2.2	1.11	1.31	0.095	0.0289	1.82
HCI-027, days in culture: 194	1.73	1.53	1.35	1.11	1.6	0.208	0.00956	1.77
HCI-027, days in culture: 201	2.55	2.73	2.59	1.88	1.72	0.173	0.031	2.81

CC(C)n1nc(-c2ccc3oc(N)nc3c2)c2c(N)ncnc21 [sapanisertib]
CTG-3D luminescence at 96 h
Details	12.5 pM	0.00025 µM	0.005 µM	0.1 µM	1 µM	10 µM	100 µM	625 fM
HCI-008, days in culture: 228	1.63	1.78	0.85	0.502	0.33	0.185	0.0307	1.78
HCI-008, days in culture: 244	1.15	1.75	1.82	0.854	0.511	0.267	0.0296	2.11
HCI-010, days in culture: 52	2.19	2.6	1.89	0.958	0.693	0.249	0.011	2.4
HCI-010, days in culture: 65	1.61	1.71	1.34	0.701	0.447	0.0873	0.00591	1.71
HCI-010, days in culture: 103	3.65	3.1	3	1.48	1.26	0.555	-0.00132	3.02
HCI-016, days in culture: 153	2.9	1.03	2.18	0.842	0.922	0.411	0.0999	3.03
HCI-016, days in culture: 172	1.87	2.06	1.85	0.699	0.584	0.407	0.191	1.68
HCI-016, days in culture: 190	1.66	1.47	1.49	0.534	0.464	0.421	0.149	1.23
HCI-016, days in culture: 199	1.5	1.27	1.33	0.585	0.511	0.374	0.119	1.63
HCI-019, days in culture: 110	1.88	1.46	1.02	0.781	0.409	0.493	0.0143	2.26
HCI-019, days in culture: 131	2.52	3.19	3.17	1.21	0.676	0.681	0.0207	3.58
HCI-019, days in culture: 152	4.18	3.66	2.71	0.969	0.811	0.616	0.0357	2.12
HCI-025, days in culture: 172	2.78	1.04	1.61	0.407	0.372	0.145	0.00492	2.01
HCI-025, days in culture: 209	1.39	2.18	1.62	0.44	0.256	0.217	0.0409	1.33
HCI-025, days in culture: 218	1.85	2.15	1.44	0.421	0.231	0.291	0.0278	1.99
HCI-027, days in culture: 176	2.05	1.48	2.22	0.7	0.529	0.264	0.0926	1.82
HCI-027, days in culture: 194	1.72	1.59	1.5	0.847	0.824	0.441	0.102	1.57
HCI-027, days in culture: 201	2.25	1.83	2.1	0.956	0.784	0.301	0.141	2.47

COc1cc2c(Oc3ccc4[nH]c(C)cc4c3F)ncnc2cc1OCCCN1CCCC1 [cediranib]
CTG-3D luminescence at 96 h
Details	12.5 pM	0.00025 µM	0.005 µM	0.1 µM	1 µM	10 µM	100 µM	625 fM
HCI-008, days in culture: 228	1.83	1.99	1.53	2.02	1.69	-0.102	-0.136	1.51
HCI-008, days in culture: 244	1.25	1.7	1.65	2.04	1.62	0.0639	-0.000797	1.95
HCI-010, days in culture: 52	1.94	2.48	2.23	2.46	2.24	0.221	-0.0298	2.13
HCI-010, days in culture: 65	1.55	1.65	1.76	1.77	1.42	0.593	-0.00161	1.63
HCI-010, days in culture: 103	3.58	3.43	3.17	3.43	2.66	0.461	-0.00732	3.19
HCI-016, days in culture: 153	3.21	2.24	2.18	2.54	3.03	0.161	-0.00356	2.44
HCI-016, days in culture: 172	2.32	2.05	1.6	1.62	1.55	0.397	-0.000672	1.64
HCI-016, days in culture: 190	1.57	1.2	1.45	1.43	1.44	0.423	5.93e-05	1.13
HCI-016, days in culture: 199	1.23	1.38	1.17	1.65	1.57	0.0517	-0.0032	1.73
HCI-019, days in culture: 110	1.88	1.82	1.98	2.39	1.07	0.1	-0.00352	2.01
HCI-019, days in culture: 131	2.89	3.08	3.29	3.43	1.59	0.0352	-0.00454	3.39
HCI-019, days in culture: 152	2.41	3.23	2.62	1.68	0.851	0.22	0.000827	2.04
HCI-025, days in culture: 172	2.66	1.84	3.42	1.99	2.79	0.0165	-0.00438	2.12
HCI-025, days in culture: 209	1.77	1.18	1.76	1.47	2.18	0.022	-0.00409	1.31
HCI-025, days in culture: 218	1.52	1.84	2.1	1.73	1.5	0.0433	-0.00599	1.86
HCI-027, days in culture: 176	1.99	1.2	2.24	1.46	2.56	0.0266	-0.00276	1.66
HCI-027, days in culture: 194	1.76	1.48	1.39	1.94	2.13	0.0281	-0.00212	1.47
HCI-027, days in culture: 201	2.17	1.9	1.78	1.87	2.39	0.0302	-0.000884	1.9
